Laboratory results: PubChem BioAssay AID1259407 (Chemical Carcinogenesis Research Information System (CCRIS), 2018)
Calls of active or inactive are those of the source. How the calls were made is not given here.

System: CCRIS mutagenicity, Ames/micronucleus/aberration tests
Experiment: CCRIS mutagenicity studies
[1] = Test System: AMES SALMONELLA TYPHIMURIUM, Strain/Indicator: TA98, Metabolic Activation: NONE, Method: STANDARD PLATE
[2] = Test System: AMES SALMONELLA TYPHIMURIUM, Strain/Indicator: TA98, Metabolic Activation: RAT, LIVER, S-9, AROCLOR 1254, Method: STANDARD PLATE
[3] = Test System: AMES SALMONELLA TYPHIMURIUM, Strain/Indicator: TA100, Metabolic Activation: NONE, Method: STANDARD PLATE
[4] = Test System: AMES SALMONELLA TYPHIMURIUM, Strain/Indicator: TA100, Metabolic Activation: RAT, LIVER, S-9, AROCLOR 1254, Method: STANDARD PLATE
[5] = Test System: AMES SALMONELLA TYPHIMURIUM, Strain/Indicator: TA1535, Metabolic Activation: NONE, Method: STANDARD PLATE
[6] = Test System: AMES SALMONELLA TYPHIMURIUM, Strain/Indicator: TA1535, Metabolic Activation: RAT, LIVER, S-9, AROCLOR 1254, Method: STANDARD PLATE
[7] = Test System: AMES SALMONELLA TYPHIMURIUM, Strain/Indicator: TA1537, Metabolic Activation: NONE, Method: STANDARD PLATE
[8] = Test System: AMES SALMONELLA TYPHIMURIUM, Strain/Indicator: TA1537, Metabolic Activation: RAT, LIVER, S-9, AROCLOR 1254, Method: STANDARD PLATE

SMILES: Fc1ccccc1-c1ccccc1
- mutagenic call (Test System: AMES SALMONELLA TYPHIMURIUM, Strain/Indicator: TA98, Metabolic Activation: HAMSTER, LIVER, S-9, AROCLOR 1254, Method: STANDARD PLATE): inactive; negative
- mutagenic call [1]: inactive; negative
- mutagenic call [2]: inactive; negative
- mutagenic call (Test System: AMES SALMONELLA TYPHIMURIUM, Strain/Indicator: TA100, Metabolic Activation: HAMSTER, LIVER, S-9, AROCLOR 1254, Method: STANDARD PLATE): inactive; negative
- mutagenic call [3]: inactive; negative
- mutagenic call [4]: inactive; negative
- mutagenic call (Test System: AMES SALMONELLA TYPHIMURIUM, Strain/Indicator: TA1535, Metabolic Activation: HAMSTER, LIVER, S-9, AROCLOR 1254, Method: STANDARD PLATE): inactive; negative
- mutagenic call [5]: inactive; negative
- mutagenic call [6]: inactive; negative
- mutagenic call (Test System: AMES SALMONELLA TYPHIMURIUM, Strain/Indicator: TA1537, Metabolic Activation: HAMSTER, LIVER, S-9, AROCLOR 1254, Method: STANDARD PLATE): inactive; negative
- mutagenic call [7]: inactive; negative
- mutagenic call [8]: inactive; negative
- mutagenic call (Test System: AMES SALMONELLA TYPHIMURIUM, Strain/Indicator: TA1538, Metabolic Activation: HAMSTER, LIVER, S-9, AROCLOR 1254, Method: STANDARD PLATE): inactive; negative
- mutagenic call (Test System: AMES SALMONELLA TYPHIMURIUM, Strain/Indicator: TA1538, Metabolic Activation: NONE, Method: STANDARD PLATE): inactive; negative
- mutagenic call (Test System: AMES SALMONELLA TYPHIMURIUM, Strain/Indicator: TA1538, Metabolic Activation: RAT, LIVER, S-9, AROCLOR 1254, Method: STANDARD PLATE): inactive; negative
- mutagenic call (Test System: Mouse lymphoma, Strain/Indicator: L5178Y (tk+/tk-), Metabolic Activation: None, Method: Suspension/plate): inactive; negative
- mutagenic call (Test System: Mouse lymphoma, Strain/Indicator: L5178Y (tk+/tk-), Metabolic Activation: Rat, Liver, S-9, Aroclor 1254, Method: Suspension/plate): inactive; negative

SMILES: CC(=O)OCC(=O)NCCCOc1cccc(CN2CCCCC2)c1
- mutagenic call (Test System: AMES SALMONELLA TYPHIMURIUM, Strain/Indicator: TA98, Metabolic Activation: NONE): inactive; negative
- mutagenic call (Test System: AMES SALMONELLA TYPHIMURIUM, Strain/Indicator: TA98, Metabolic Activation: RAT, LIVER, S-9, PHENOBARBITAL AND 5,6-BENZOFLAVONE): inactive; negative
- mutagenic call (Test System: AMES SALMONELLA TYPHIMURIUM, Strain/Indicator: TA100, Metabolic Activation: NONE): inactive; negative
- mutagenic call (Test System: AMES SALMONELLA TYPHIMURIUM, Strain/Indicator: TA100, Metabolic Activation: RAT, LIVER, S-9, PHENOBARBITAL AND 5,6-BENZOFLAVONE): inactive; negative
- mutagenic call (Test System: AMES SALMONELLA TYPHIMURIUM, Strain/Indicator: TA1535, Metabolic Activation: NONE): inactive; negative
- mutagenic call (Test System: AMES SALMONELLA TYPHIMURIUM, Strain/Indicator: TA1535, Metabolic Activation: RAT, LIVER, S-9, PHENOBARBITAL AND 5,6-BENZOFLAVONE): inactive; negative
- mutagenic call (Test System: AMES SALMONELLA TYPHIMURIUM, Strain/Indicator: TA1537, Metabolic Activation: NONE): inactive; negative
- mutagenic call (Test System: AMES SALMONELLA TYPHIMURIUM, Strain/Indicator: TA1537, Metabolic Activation: RAT, LIVER, S-9, PHENOBARBITAL AND 5,6-BENZOFLAVONE): inactive; negative
- mutagenic call (Test System: AMES SALMONELLA TYPHIMURIUM, Strain/Indicator: TA1538, Metabolic Activation: NONE): inactive; negative
- mutagenic call (Test System: AMES SALMONELLA TYPHIMURIUM, Strain/Indicator: TA1538, Metabolic Activation: RAT, LIVER, S-9, PHENOBARBITAL AND 5,6-BENZOFLAVONE): inactive; negative
- mutagenic call (Test System: E. COLI, Strain/Indicator: WP2 UVRA, Metabolic Activation: NONE): inactive; negative
- mutagenic call (Test System: E. COLI, Strain/Indicator: WP2 UVRA, Metabolic Activation: RAT, LIVER, S-9, PHENOBARBITAL AND 5,6-BENZOFLAVONE): inactive; negative

SMILES: CN1C(=O)CN=C(c2ccccc2)c2cc(Cl)ccc21
- mutagenic call (End Point: IN VITRO MICRONUCLEUS, Test System: V79 CELLS, Metabolic Activation: NONE): active; positive
- mutagenic call (End Point: IN VIVO CHROMOSOMAL ABERRATIONS, Test System: PERIPHERAL BLOOD LYMPHOCYTES, Species: HUMAN, Strain/Sex: MALE, FEMALE, Route: IV): inactive; negative
- mutagenic call (Test System: AMES SALMONELLA TYPHIMURIUM, Strain/Indicator: TA97, Metabolic Activation: HAMSTER, LIVER, S-9, AROCLOR 1254 (10 OR 30%), Method: PREINCUBATION): inactive; negative
- mutagenic call (Test System: AMES SALMONELLA TYPHIMURIUM, Strain/Indicator: TA97, Metabolic Activation: NONE, Method: PREINCUBATION): inactive; negative
- mutagenic call (Test System: AMES SALMONELLA TYPHIMURIUM, Strain/Indicator: TA97, Metabolic Activation: RAT, LIVER, S-9, AROCLOR 1254 (10 OR 30%), Method: PREINCUBATION): inactive; negative
- mutagenic call (Test System: AMES SALMONELLA TYPHIMURIUM, Strain/Indicator: TA98, Metabolic Activation: HAMSTER, LIVER, S-9, AROCLOR 1254 (10 OR 30%), Method: PREINCUBATION): inactive; negative
- mutagenic call (Test System: AMES SALMONELLA TYPHIMURIUM, Strain/Indicator: TA98, Metabolic Activation: NONE, Method: PREINCUBATION): inactive; negative
- mutagenic call [1]: inactive; negative
- mutagenic call (Test System: AMES SALMONELLA TYPHIMURIUM, Strain/Indicator: TA98, Metabolic Activation: RAT, LIVER, S-9, AROCLOR 1254 (10 OR 30%), Method: PREINCUBATION): inactive; negative
- mutagenic call [2]: inactive; negative
- mutagenic call (Test System: AMES SALMONELLA TYPHIMURIUM, Strain/Indicator: TA100, Metabolic Activation: HAMSTER, LIVER, S-9, AROCLOR 1254 (10 OR 30%), Method: PREINCUBATION): inactive; negative
- mutagenic call (Test System: AMES SALMONELLA TYPHIMURIUM, Strain/Indicator: TA100, Metabolic Activation: NONE, Method: PREINCUBATION): inactive; negative
- mutagenic call [3]: inactive; negative
- mutagenic call (Test System: AMES SALMONELLA TYPHIMURIUM, Strain/Indicator: TA100, Metabolic Activation: RAT, LIVER, S-9, AROCLOR 1254 (10 OR 30%), Method: PREINCUBATION): inactive; negative
- mutagenic call [4]: inactive; negative
- mutagenic call (Test System: AMES SALMONELLA TYPHIMURIUM, Strain/Indicator: TA1535, Metabolic Activation: HAMSTER, LIVER, S-9, AROCLOR 1254 (10 OR 30%), Method: PREINCUBATION): inactive; negative
- mutagenic call (Test System: AMES SALMONELLA TYPHIMURIUM, Strain/Indicator: TA1535, Metabolic Activation: NONE, Method: PREINCUBATION): inactive; negative
- mutagenic call [5]: inactive; negative
- mutagenic call (Test System: AMES SALMONELLA TYPHIMURIUM, Strain/Indicator: TA1535, Metabolic Activation: RAT, LIVER, S-9, AROCLOR 1254 (10 OR 30%), Method: PREINCUBATION): inactive; negative
- mutagenic call [6]: inactive; negative
- mutagenic call (Test System: AMES SALMONELLA TYPHIMURIUM, Strain/Indicator: TA1537, Metabolic Activation: HAMSTER, LIVER, S-9, AROCLOR 1254 (30%), Method: PREINCUBATION): inactive; negative
- mutagenic call (Test System: AMES SALMONELLA TYPHIMURIUM, Strain/Indicator: TA1537, Metabolic Activation: NONE, Method: PREINCUBATION): inactive; negative
- mutagenic call [7]: inactive; negative
- mutagenic call (Test System: AMES SALMONELLA TYPHIMURIUM, Strain/Indicator: TA1537, Metabolic Activation: RAT, LIVER, S-9, AROCLOR 1254 (30%), Method: PREINCUBATION): inactive; negative
- mutagenic call [8]: inactive; negative

SMILES: O=[N+]([O-])c1cccc(CO/N=C/c2nc3cc([N+](=O)[O-])ccc3n2Cc2ccc(Cl)cc2)c1
- mutagenic call [1]: inactive; negative
- mutagenic call (Test System: AMES SALMONELLA TYPHIMURIUM, Strain/Indicator: TA98, Metabolic Activation: RAT, LIVER, S-9, PHENOBARBITAL AND BETA-NAPHTHOFLAVONE, Method: STANDARD PLATE): inactive; negative
- mutagenic call [3]: inactive; negative
- mutagenic call (Test System: AMES SALMONELLA TYPHIMURIUM, Strain/Indicator: TA100, Metabolic Activation: RAT, LIVER, S-9, PHENOBARBITAL AND BETA-NAPHTHOFLAVONE, Method: STANDARD PLATE): inactive; negative
